From US8192962B2, “Processes for detecting toxic substances” (Daikin Industries, Ltd., priority 2001, dated 2012)

Test system: DNA repair protein genes
Assay: DNA chip mRNA expression in yeast, DNA repair protein genes (Table 3)
Assay type: cell-based, Saccharomyces cerevisiae S288C
Settings: incubated two hours, concentrations as in the 1st table
Method in brief: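 Value is the scanned fluorescence intensity ratio of exposed versus chemical-free cells. Log-phase S288C yeast in YPD at 25° C. received one toxic substance for two hours, dosed to slow growth without killing; Cy3/Cy5-labeled cDNA from oligo-dT-purified mRNA was hybridized to a whole-genome chip at 65° C.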

In the case of [Cl][Hg][Cl] [(3), HgCl2], the “The level of expressed mRNA in the presence of chemical substance/The level of expressed mRNA in the absence of chemical substance” value (yeast gene YAL015C) is reported as 1.7, the “The level of expressed mRNA in the presence of chemical substance/The level of expressed mRNA in the absence of chemical substance” value (yeast gene YAR007C) is reported as 0.8 and the “The level of expressed mRNA in the presence of chemical substance/The level of expressed mRNA in the absence of chemical substance” value (yeast gene YBL019W) is reported as 0.7. For the same compound, the “The level of expressed mRNA in the presence of chemical substance/The level of expressed mRNA in the absence of chemical substance” value (yeast gene YBR073W) was 0.9, the “The level of expressed mRNA in the presence of chemical substance/The level of expressed mRNA in the absence of chemical substance” value (yeast gene YBR272C) was 1.3 and the “The level of expressed mRNA in the presence of chemical substance/The level of expressed mRNA in the absence of chemical substance” value (yeast gene YCR014C) was 0.8. For the same compound, the “The level of expressed mRNA in the presence of chemical substance/The level of expressed mRNA in the absence of chemical substance” value (yeast gene YDL017W) was 1.2, the “The level of expressed mRNA in the presence of chemical substance/The level of expressed mRNA in the absence of chemical substance” value (yeast gene YDL059C) was 1.4 and the “The level of expressed mRNA in the presence of chemical substance/The level of expressed mRNA in the absence of chemical substance” value (yeast gene YDL200C) was 1.2. The “The level of expressed mRNA in the presence of chemical substance/The level of expressed mRNA in the absence of chemical substance” value (yeast gene YDR054C) was 0.7, the “The level of expressed mRNA in the presence of chemical substance/The level of expressed mRNA in the absence of chemical substance” value (yeast gene YDR369C) was 2.4 and the “The level of expressed mRNA in the presence of chemical substance/The level of expressed mRNA in the absence of chemical substance” value (yeast gene YEL019C) was 0.3. The “The level of expressed mRNA in the presence of chemical substance/The level of expressed mRNA in the absence of chemical substance” value (yeast gene YEL037C) was 0.9, the “The level of expressed mRNA in the presence of chemical substance/The level of expressed mRNA in the absence of chemical substance” value (yeast gene YER162C) was 1.0 and the “The level of expressed mRNA in the presence of chemical substance/The level of expressed mRNA in the absence of chemical substance” value (yeast gene YFL014W) was 5.7. For the same compound, the “The level of expressed mRNA in the presence of chemical substance/The level of expressed mRNA in the absence of chemical substance” value (yeast gene YGL058W) was 0.6, the “The level of expressed mRNA in the presence of chemical substance/The level of expressed mRNA in the absence of chemical substance” value (yeast gene YGL091C) was 1.0 and the “The level of expressed mRNA in the presence of chemical substance/The level of expressed mRNA in the absence of chemical substance” value (yeast gene YGL127C) was 1.3. For the same compound, the “The level of expressed mRNA in the presence of chemical substance/The level of expressed mRNA in the absence of chemical substance” value (yeast gene YGL163C) was 0.6, the “The level of expressed mRNA in the presence of chemical substance/The level of expressed mRNA in the absence of chemical substance” value (yeast gene YGL249W) was 0.5 and the “The level of expressed mRNA in the presence of chemical substance/The level of expressed mRNA in the absence of chemical substance” value (yeast gene YGR180C) was 1.9. The “The level of expressed mRNA in the presence of chemical substance/The level of expressed mRNA in the absence of chemical substance” value (yeast gene YGR231C) was 0.7, the “The level of expressed mRNA in the presence of chemical substance/The level of expressed mRNA in the absence of chemical substance” value (yeast gene YGR258C) was 0.7 and the “The level of expressed mRNA in the presence of chemical substance/The level of expressed mRNA in the absence of chemical substance” value (yeast gene YHR164C) was 0.9. The “The level of expressed mRNA in the presence of chemical substance/The level of expressed mRNA in the absence of chemical substance” value (yeast gene YIL036W) was 1.3, the “The level of expressed mRNA in the presence of chemical substance/The level of expressed mRNA in the absence of chemical substance” value (yeast gene YIL072W) was 1.1 and the “The level of expressed mRNA in the presence of chemical substance/The level of expressed mRNA in the absence of chemical substance” value (yeast gene YIL143C) was 1.1. For the same compound, the “The level of expressed mRNA in the presence of chemical substance/The level of expressed mRNA in the absence of chemical substance” value (yeast gene YIL153W) was 1.3, the “The level of expressed mRNA in the presence of chemical substance/The level of expressed mRNA in the absence of chemical substance” value (yeast gene YIR002C) was 0.5 and the “The level of expressed mRNA in the presence of chemical substance/The level of expressed mRNA in the absence of chemical substance” value (yeast gene YJL026W) was 2.9. For the same compound, the “The level of expressed mRNA in the presence of chemical substance/The level of expressed mRNA in the absence of chemical substance” value (yeast gene YJR046W) was 1.2, the “The level of expressed mRNA in the presence of chemical substance/The level of expressed mRNA in the absence of chemical substance” value (yeast gene YJR052W) was 1.1 and the “The level of expressed mRNA in the presence of chemical substance/The level of expressed mRNA in the absence of chemical substance” value (yeast gene YKL145W) was 1.2. The “The level of expressed mRNA in the presence of chemical substance/The level of expressed mRNA in the absence of chemical substance” value (yeast gene YLR103C) was 1.1, the “The level of expressed mRNA in the presence of chemical substance/The level of expressed mRNA in the absence of chemical substance” value (yeast gene YLR233C) was 2.0 and the “The level of expressed mRNA in the presence of chemical substance/The level of expressed mRNA in the absence of chemical substance” value (yeast gene YLR288C) was 1.6. For the same compound, the “The level of expressed mRNA in the presence of chemical substance/The level of expressed mRNA in the absence of chemical substance” value (yeast gene YML032C) was 1.1, the “The level of expressed mRNA in the presence of chemical substance/The level of expressed mRNA in the absence of chemical substance” value (yeast gene YML058W) was 5.8 and the “The level of expressed mRNA in the presence of chemical substance/The level of expressed mRNA in the absence of chemical substance” value (yeast gene YMR035W) was 1.5. For the same compound, the “The level of expressed mRNA in the presence of chemical substance/The level of expressed mRNA in the absence of chemical substance” value (yeast gene YMR072W) was 1.4, the “The level of expressed mRNA in the presence of chemical substance/The level of expressed mRNA in the absence of chemical substance” value (yeast gene YMR096W) was 1.1 and the “The level of expressed mRNA in the presence of chemical substance/The level of expressed mRNA in the absence of chemical substance” value (yeast gene YMR284W) was 0.5. The “The level of expressed mRNA in the presence of chemical substance/The level of expressed mRNA in the absence of chemical substance” value (yeast gene YNL213C) was 0.9, the “The level of expressed mRNA in the presence of chemical substance/The level of expressed mRNA in the absence of chemical substance” value (yeast gene YNL250W) was 0.8 and the “The level of expressed mRNA in the presence of chemical substance/The level of expressed mRNA in the absence of chemical substance” value (yeast gene YNL261W) was 0.6. The “The level of expressed mRNA in the presence of chemical substance/The level of expressed mRNA in the absence of chemical substance” value (yeast gene YNL312W) was 1.6, the “The level of expressed mRNA in the presence of chemical substance/The level of expressed mRNA in the absence of chemical substance” value (yeast gene YOL043C) was 0.8 and the “The level of expressed mRNA in the presence of chemical substance/The level of expressed mRNA in the absence of chemical substance” value (yeast gene YOR005C) was 1.0. The “The level of expressed mRNA in the presence of chemical substance/The level of expressed mRNA in the absence of chemical substance” value (yeast gene YOR386W) was 1.3, the “The level of expressed mRNA in the presence of chemical substance/The level of expressed mRNA in the absence of chemical substance” value (yeast gene YPL022W) was 0.7 and the “The level of expressed mRNA in the presence of chemical substance/The level of expressed mRNA in the absence of chemical substance” value (yeast gene YPL164C) was 1.1. For the same compound, the “The level of expressed mRNA in the presence of chemical substance/The level of expressed mRNA in the absence of chemical substance” value (yeast gene YPL194W) was 0.4 and the “The level of expressed mRNA in the presence of chemical substance/The level of expressed mRNA in the absence of chemical substance” value (yeast gene YPR025C) was 0.6.
